Measurements as given in PubChem BioAssay AID1963869 (Molecular Pharmacology Branch, DTP, NCI, 2024).
Values joined by “and” are separate entries in the source; they are usually repeats but may differ in a detail not shown here. Equal entries are not always repeated.

System: KRAS patient-derived spheroids with HUVEC/MSC, viability
Experiment: Anticancer human tumor 323965-272-R-J2-PDC patient-derived pancreatic carcinoma cell line growth inhibition [KRAS2]
Conditions: for viability, T/C: stronger effect = lower value
Description: Multicellular complex tumor spheroid response to RAS pathway inhibitors in combination with a targeted agents in patient-derived cell lines with oncogenic KRAS variants from multiple cancer types
A high-throughput screen of multi-cell type tumor spheroids was designed to identify active combinations of targeted small molecules and KRAS pathway inhibitors. Complex spheroids include a stromal component modeled by human endothelial cells (HUVEC) and fibroblasts modeled by human mesenchymal stem cells (MSCs). The concentration ranges selected for each drug and investigational agent were based upon clinically achievable concentrations if the clinical Cmax of the agent was known.
Compounds. The drugs and investigational agents: BI-3406 (NSC825286), BAY-293 (NSC824723), batoprotafib (TNO155; NSC825523), sotorasib (AMG 510; NSC818433), MRTX1257 (NSC819558), elimusertib (BAY 1895344; NSC800525), molibresib (GSK525762; NSC774829), temuterkib (LY3214996; NSC803410), venetoclax (NSC766270), alisertib (NSC759677), olaparib (NSC753686), talazoparib (NSC767125), erdafitinib (NSC781556), ipatasertib (NSC767898), cabozantinib (NSC761068), nintedanib (NSC756659), abemaciclib (NSC768073), docetaxel (NSC628503), trametinib (NSC758246), and sapanisertib (NSC764658) were obtained from the National Cancer Institute (NCI) Developmental Therapeutics Program Chemical Repository. The FDA-approved anticancer drug set is available from the Developmental Therapeutics Program. […] The stock solutions were prepared in dimethyl sulfoxide (DMSO, Sigma-Aldrich, St. Louis, MO, cat. D2650) at 800-fold the tested concentration and stored at -70 degrees C prior to their use. All drugs and investigational agents were tested over a range starting from a high concentration at or near the clinical Cmax and decreasing in half-log increments. If the clinical Cmax for an agent had not been determined, the highest concentration tested was 10 microM.
Cell Culture. All cells were maintained in an incubator at 37 degrees C and 5% CO2 with 95% humidity. The PDC lines were cultured according to standard operating procedures established by the NCI PDMR (https://pdmr.cancer.gov/sops/default.htm). Briefly, all PDCs were thawed and cultured in Matrigel-coated flasks prepared with a working solution of 1X Ham's F-12 nutrient mix, without supplementation (Invitrogen, Waltham, MA, cat. 11765054), 100 U/mL penicillin-streptomycin (Invitrogen, cat. 15140122), and 2.5% Matrigel (Corning Inc., Corning, NY, cat. 354248) for the first three passages. All PDCs were cultured in complete DMEM/F-12 media containing advanced DMEM/F-12 (Invitrogen, cat. 12634028), 4.9% defined fetal bovine serum, heat inactivated (HyClone Laboratories Inc., Logan, UT, cat. SH30070.03HI), 389 ng/mL hydrocortisone (Sigma-Aldrich, cat. H4001), 9.7 ng/mL human EGF recombinant protein (Invitrogen, cat. PHG0313), 23.4 microg/mL adenine (Sigma-Aldrich, cat. A2786), 97.3 U/mL penicillin-streptomycin (Invitrogen, cat. 15140122), 1.9 mM L-glutamine (Invitrogen, cat. 25030081), and 9.7 microM Y-27632 dihydrochloride (Tocris Bioscience, Bristol, United Kingdom, cat. 1254). The PDCs were cultured in complete DMEM/F12 media without 9.7 microM Y-27632 dihydrochloride for at least two passages prior to the screen. The established cell line HOP-62 was cultured in RPMI 1640 medium, HEPES (Invitrogen, cat. 22400105) with 10% defined fetal bovine serum (HyClone Laboratories Inc., cat. SH30070.03) and 2 mM L-glutamine (Invitrogen, cat. 25030081). The pooled donor HUVEC were cultured in endothelial cell growth medium 2 (PromoCell, Heidelberg, Germany, cat. C-22011) and the hMSC were cultured in mesenchymal stem cell growth medium 2 (PromoCell, cat. C-28009). For all experiments, HUVEC and hMSC were used at passages </=5, while the malignant cell lines were used at passages </=15. […]

[1] = curve of first compound, second compound 0.0316 µM
[2] = curve of first compound, second compound 0.1 µM
[3] = curve of first compound, second compound 0.316 µM
[4] = curve of first compound, second compound 1 µM
[5] = curve of first compound, second compound 3.16 µM
[6] = second compound 0.0316 µM, first compound 0.0316 µM
[7] = second compound 0.0316 µM, first compound 0.1 µM
[8] = second compound 0.0316 µM, first compound 0.316 µM
[9] = second compound 0.0316 µM, first compound 1 µM
[10] = second compound 0.0316 µM, first compound 3.16 µM
[11] = second compound 0.0316 µM, first compound 10 µM
[12] = second compound 0.1 µM, first compound 0.0316 µM
[13] = second compound 0.1 µM, first compound 0.1 µM
[14] = second compound 0.1 µM, first compound 0.316 µM
[15] = second compound 0.1 µM, first compound 1 µM
[16] = second compound 0.1 µM, first compound 3.16 µM
[17] = second compound 0.1 µM, first compound 10 µM
[18] = second compound 0.316 µM, first compound 0.0316 µM
[19] = second compound 0.316 µM, first compound 0.1 µM
[20] = second compound 0.316 µM, first compound 0.316 µM
[21] = second compound 0.316 µM, first compound 1 µM
[22] = second compound 0.316 µM, first compound 3.16 µM
[23] = second compound 0.316 µM, first compound 10 µM
[24] = second compound 1 µM, first compound 0.0316 µM
[25] = second compound 1 µM, first compound 0.1 µM
[26] = second compound 1 µM, first compound 0.316 µM
[27] = second compound 1 µM, first compound 1 µM
[28] = second compound 1 µM, first compound 3.16 µM
[29] = second compound 1 µM, first compound 10 µM
[30] = second compound 3.16 µM, first compound 0.0316 µM
[31] = second compound 3.16 µM, first compound 0.1 µM
[32] = second compound 3.16 µM, first compound 0.316 µM
[33] = second compound 3.16 µM, first compound 1 µM
[34] = second compound 3.16 µM, first compound 3.16 µM
[35] = second compound 3.16 µM, first compound 10 µM
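Note: spheroids exposed to agents for 7 days.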
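Throughout, for viability, T/C: 100% = DMSO vehicle control viability.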

Question: For `COc1cc(Nc2ncc3c(n2)-c2ccc(Cl)cc2C(c2c(F)cccc2OC)=NC3)ccc1C(=O)O` + C=CC(=O)N1CCN(c2nc(OCC3CCCN3C)nc3c2CCN(c2cccc4cccc(C)c24)C3)CC1CC#N, which IC50 [1] is on record?
Answer: < 31.6 nM

Question: What about the IC50 [2] of the same molecule?
Answer: 49.4 nM

Question: What about the IC50 [3] of the same molecule?
Answer: < 31.6 nM

Question: And the IC50 [4]?
Answer: < 31.6 nM

Question: And the IC50 [5]?
Answer: < 31.6 nM

Question: And the viability, T/C [6]?
Answer: 60.1%

Question: What about the viability, T/C [7] of the same molecule?
Answer: 43.8%

Question: And the viability, T/C [8]?
Answer: 31.4%

Question: And the viability, T/C [9]?
Answer: 36.3%

Question: And the viability, T/C [10]?
Answer: 46%

Question: What about the viability, T/C [11] of the same molecule?
Answer: 56.2%

Question: And the viability, T/C [12]?
Answer: 58.1%

Question: And the viability, T/C [13]?
Answer: 35.9%

Question: And the viability, T/C [14]?
Answer: 29.7%

Question: What about the viability, T/C [15] of the same molecule?
Answer: 30.7%

Question: What about the viability, T/C [16] of the same molecule?
Answer: 39.4%

Question: And the viability, T/C [17]?
Answer: 48.8%

Question: And the viability, T/C [18]?
Answer: 48.5%

Question: What about the viability, T/C [19] of the same molecule?
Answer: 33.3%

Question: And the viability, T/C [20]?
Answer: 26.6%

Question: What about the viability, T/C [21] of the same molecule?
Answer: 27.8%

Question: What about the viability, T/C [22] of the same molecule?
Answer: 35.8%

Question: What about the viability, T/C [23] of the same molecule?
Answer: 43.5%

Question: And the viability, T/C [24]?
Answer: 55.3%

Question: And the viability, T/C [25]?
Answer: 32.6%

Question: And the viability, T/C [26]?
Answer: 20.4%

Question: And the viability, T/C [27]?
Answer: 30.5%

Question: What about the viability, T/C [28] of the same molecule?
Answer: 38.6%

Question: And the viability, T/C [29]?
Answer: 46.6%

Question: What about the viability, T/C [30] of the same molecule?
Answer: 21.1%

Question: What about the viability, T/C [31] of the same molecule?
Answer: 13.2%

Question: And the viability, T/C [32]?
Answer: 10.3%

Question: And the viability, T/C [33]?
Answer: 19%

Question: And the viability, T/C [34]?
Answer: 20.5%

Question: And the viability, T/C [35]?
Answer: 15.5%

Question: Which results are given for `COC(=O)c1ccc2c(C(=Nc3ccc(N(C)C(=O)CN4CCN(C)CC4)cc3)c3ccccc3)c(O)[nH]c2c1`?
Answer: viability, T/C (compound 0.0316 µM): 97.4% [middle of 5 runs]; viability, T/C (compound 0.1 µM): 102% [middle of 5 runs]; viability, T/C (compound 0.316 µM): 101% [middle of 5 runs]; viability, T/C (compound 1 µM): 98% [middle of 5 runs]; viability, T/C (compound 3.16 µM): 98.7% [middle of 5 runs]; IC50 (curve of compound): 7380 nM and > 10000 nM and 7570 nM

Question: `CC1OCC2(CCN(c3cnc(Sc4ccnc(N)c4Cl)c(N)n3)CC2)C1N` (stereo unspecified) + C=CC(=O)N1CCN(c2nc(OCC3CCCN3C)nc3c2CCN(c2cccc4cccc(C)c24)C3)CC1CC#N was tested. Which IC50 [1] did it give?
Answer: 36.9 nM

Question: What about the IC50 [2] of the same molecule?
Answer: < 31.6 nM

Question: And the IC50 [3]?
Answer: < 31.6 nM

Question: What about the IC50 [4] of the same molecule?
Answer: < 31.6 nM

Question: And the IC50 [5]?
Answer: < 31.6 nM

Question: And the viability, T/C [6]?
Answer: 51.4%

Question: What about the viability, T/C [7] of the same molecule?
Answer: 39.2%

Question: What about the viability, T/C [8] of the same molecule?
Answer: 24.4%

Question: And the viability, T/C [9]?
Answer: 19.3%

Question: And the viability, T/C [10]?
Answer: 12.3%

Question: And the viability, T/C [11]?
Answer: 9.85%

Question: What about the viability, T/C [12] of the same molecule?
Answer: 38.4%

Question: And the viability, T/C [13]?
Answer: 31.9%

Question: What about the viability, T/C [14] of the same molecule?
Answer: 21.5%

Question: And the viability, T/C [15]?
Answer: 15.1%

Question: And the viability, T/C [16]?
Answer: 10.7%

Question: What about the viability, T/C [17] of the same molecule?
Answer: 10.8%

Question: And the viability, T/C [18]?
Answer: 41%

Question: And the viability, T/C [19]?
Answer: 30.5%

Question: What about the viability, T/C [20] of the same molecule?
Answer: 18.4%

Question: And the viability, T/C [21]?
Answer: 17%

Question: And the viability, T/C [22]?
Answer: 10.8%

Question: And the viability, T/C [23]?
Answer: 9.7%

Question: And the viability, T/C [24]?
Answer: 35.2%

Question: What about the viability, T/C [25] of the same molecule?
Answer: 28.9%

Question: What about the viability, T/C [26] of the same molecule?
Answer: 15.7%

Question: And the viability, T/C [27]?
Answer: 13.5%

Question: And the viability, T/C [28]?
Answer: 11.6%

Question: What about the viability, T/C [29] of the same molecule?
Answer: 10%

Question: What about the viability, T/C [30] of the same molecule?
Answer: 1.93%

Question: And the viability, T/C [31]?
Answer: 1.12%

Question: And the viability, T/C [32]?
Answer: 0.53%

Question: What about the viability, T/C [33] of the same molecule?
Answer: 0.65%

Question: And the viability, T/C [34]?
Answer: 1.07%

Question: And the viability, T/C [35]?
Answer: 1.33%
